The source of these data is ChEMBL document CHEMBL3507680, “University of Dundee, Gates Library screen for HepG2 cell viability”.

Structures are written as SMILES.

The data set can be described thus: Human HepG2 cell viability assay in 384 well format. The format is toxicity, cell-based. Also noted: dose 125 nL, time 70.5 hour; cytotoxicity at 70.5 h: concentration not given beside the values. The settings on record: HepG2 cells, read-out: Inhibition.
Turning to `CCn1c(C)nnc1SCCNc1nc(C)ncc1S(C)(=O)=O`, the cytotoxicity at 70.5 h is -11.4%. With `Cc1nc(C(C)NC(=O)c2cn(CCC3CCCCC3)nn2)n[nH]1` (configuration not stated), the cytotoxicity at 70.5 h is -23.9%. Take `N#Cc1ccccc1CN1C[C@@H]2CC[C@H](C1)N(CC1CCC1)C2=O`: the cytotoxicity at 70.5 h was -4.58%.

Consider `CCc1nc(Cn2ccnc2-c2nccn2C)no1`, for which the cytotoxicity at 70.5 h was -7.78%. The figure for `COc1ccc2[nH]c(=O)c(CN(C)C(C)c3ccccn3)cc2c1` (configuration not stated) is -7.2%; for `Cc1nn(-c2ccccc2)c2nc(C(C)(C)CN3CCN(C)CC3)[nH]c12` it is -1.61%; for `COc1ccc(C(=O)O)cc1-c1cccc(C(C)N(C)C)c1` (configuration not stated) it is 0.229%.

In the case of `Cc1nc(C(F)(F)F)nc(N2CCC(O)(C(=O)O)CC2)c1C`, the cytotoxicity at 70.5 h was -6.27%. The figure for `CC(C)(C)N1CC(C(=O)N2CCN(CCn3cncn3)CC2)CC1=O` (configuration not stated) is -3.91%. In the case of `Cn1c(Cn2ccnc2)nnc1C1CCN(C(=O)c2ccccn2)CC1`, the cytotoxicity at 70.5 h was 5.03%.

Take `CN(C)c1ncc2c(n1)CCCC2NC(=O)C1CC1` (configuration not stated): the cytotoxicity at 70.5 h is -11.8%. For `CCc1nn(C)c(Cl)c1CN1CCCC(c2cc(O)nc(C)n2)C1` (configuration not stated), the cytotoxicity at 70.5 h was -0.921%. The same measure for `CCCc1cc(NCCn2cccn2)n2nccc2n1`: 1.84%; for `CC(C)Cc1ncc2c(n1)CN(C(=O)c1ccc(Cn3ccnc3)o1)C2`: -17.7%. The same measure for `CCOCCN(CCOCC)c1nc(C)nc2sccc12`: -0.429%; for `CCc1ncc2c(n1)CN(c1cc(NCCO)nc(N)n1)C2`: -3.48%. The same measure for `COc1ccc(OC2CCN(C(=O)[C@@H](N)Cc3c[nH]cn3)CC2)cc1`: 1.71%; for `CN(CCCOc1ccccc1Cl)C(=O)CN1C(=O)CCNC1=O`: -3.2%; for `CCc1cc(N[C@@H]2CC[C@@H](N)C2)n2nc(C)c(C)c2n1`: -7.75%. Consider `COc1ccc2c(c1)C(C(=O)N(C)CCc1cnn(C)c1)CC(=O)N2` (configuration not stated), for which the cytotoxicity at 70.5 h was -8.46%. `Cc1nnc(CN2CCN(C)C3(CCC(=O)N(CCO)CC3)C2)s1` (configuration not stated): the cytotoxicity at 70.5 h turned out to be 3.3%. The same measure for `CCSc1ncc(-c2nccn2CCN(C)C)cn1`: 8.9%; for `O=C(NCc1ccccn1)c1cc2n(n1)CCNC2`: -3.91%. The same measure for `Cc1cc(-c2cc(S(=O)(=O)N3C[C@H](C4CC4)[C@@H](N)C3)c(C)s2)on1`: 19.4%; for `COCc1nc(CN2CCN(c3ccc(OC)cc3)C(=O)C2C)no1` (configuration not stated): -27.3%; for `COCCN1CCCC(O)(CN2CCN(Cc3ccncc3)CC2)C1=O` (configuration not stated): -8.23%. `CCCN(Cc1ccc(S(=O)(=O)NC)cc1)Cc1ccccc1OC`: the cytotoxicity at 70.5 h amounted to 1.33%. The figure for `OCC1CCCCN1CCn1ccnc1-c1ccc2c(c1)OCCO2` (configuration not stated) is -5.38%; for `Cc1ccsc1[C@@H]1CCN(C(=O)CCc2n[nH]c(C)c2C)C[C@H]1O` it is 0.289%; for `O=C(c1ccc(S(=O)(=O)N2CCSCC2)cc1)N1CCCCCC1` it is 14.7%. The figure for `CCn1ccnc1C1CCN(C(=O)C(O)c2ccc(OC)cc2)CC1` (configuration not stated) is 4.82%; for `COCc1cc(N2CCc3onc(-c4cccc(OC)c4)c3C2)ncn1` it is -5.12%. Turning to `CN(C)S(=O)(=O)c1csc(C(=O)N2CCSCC2)c1`, the cytotoxicity at 70.5 h was -1.94%. Take `CC(=O)N(C)C1CCN(c2ncc3c(n2)CCN3c2ccccc2)C1` (configuration not stated): the cytotoxicity at 70.5 h was -3.48%. Regarding `COc1cccc(SCC(=O)N2CCC(N3CCCC(O)C3)CC2)c1` (configuration not stated), the cytotoxicity at 70.5 h was -2.74%.

Turning to `CCC(C(=O)NCc1ccncc1)N(c1cccc(Cl)c1)S(C)(=O)=O` (configuration not stated), the cytotoxicity at 70.5 h was -2.79%.

As for `Cc1cc(C(=O)N2CCCC2)ccc1NS(C)(=O)=O`, the cytotoxicity at 70.5 h is -7.84%. The figure for `Cc1nc(N2C[C@H]3CNC[C@H]3C2)c2sccc2n1` is 5.86%; for `CSCCCn1ccnc1-c1cccc(C#N)c1` it is 8.22%; for `CCN(CC)S(=O)(=O)c1csc(C(=O)N2CCC(C(N)=O)CC2)c1` it is -2.86%. The same measure for `NC(=O)C1CCN(C(=O)c2cc(S(=O)(=O)N3CCCC3)cs2)CC1`: -8.68%; for `Cc1cc(C(=O)N2CCCCC2)ccc1NS(C)(=O)=O`: -8.47%. As for `CNC(=O)c1cc(OC)c(OC)cc1N(C)S(C)(=O)=O`, the cytotoxicity at 70.5 h is -7.84%.

Turning to `O=C(Cc1nc(-c2ccncc2)n[nH]1)NCCCN1CCOCC1`, the cytotoxicity at 70.5 h is -10.7%. As to `CN(C)S(=O)(=O)c1csc(C(=O)N2CCC(C(N)=O)CC2)c1`, the cytotoxicity at 70.5 h was -7.56%. For the compound `COc1cccc([C@@H]2CCN(Cc3cn(C)c4ccccc34)C[C@H]2O)c1`, the cytotoxicity at 70.5 h is -10.7%. The same measure for `O=C1NCC2(CCCN(C(=O)Nc3cccc(-c4cscn4)c3)CC2)O1` (configuration not stated): 36%. With `Cc1ccc(-c2cc(C(=O)NCCC3=CCCCC3)[nH]n2)o1`, the cytotoxicity at 70.5 h is -10.6%. The same measure for `Cc1ccc(-c2nn(-c3cccc(F)c3)cc2CN(CCO)CCO)o1`: -17.7%; for `CCC(=O)N1CCC(Oc2ccc(C(=O)NCCN(C)C)cc2Cl)CC1`: 7.41%. For the compound `CC(C(=O)N1CCn2cncc2C1)N1CCCC1` (configuration not stated), the cytotoxicity at 70.5 h is -0.791%. In the case of `COC(=O)CN1CCCn2nc(CCC(=O)N3CCCC3)cc2C1`, the cytotoxicity at 70.5 h was 2.63%. Take `CCOC(=O)N1CCN(CC(=O)Nc2nnc(C)s2)CC1`: the cytotoxicity at 70.5 h is -6.46%.

Consider `COc1ccnc(CN2CCC(O)(c3ccc(C)cn3)CC2)c1OC`, for which the cytotoxicity at 70.5 h was -5.69%. For the compound `c1coc(-c2nc3c(c(NCc4n[nH]c5c4CCC5)n2)CCNCC3)c1`, the cytotoxicity at 70.5 h is 7.72%. For `O=S(=O)(NCCNc1ccc(-n2cccn2)nn1)c1ccccc1`, the cytotoxicity at 70.5 h is -2.97%.

Turning to `COc1ccc(-c2c[nH]c(C3CC(=O)N(CC(C)C)C3)n2)cc1` (configuration not stated), the cytotoxicity at 70.5 h is -7.11%. The figure for `O=C1N(c2ccc(Cl)cc2)Cc2n[nH]c(=O)n21` is -2.4%.

Consider `Cc1ccc2c(c1)C(NC(=O)C1CCN(S(C)(=O)=O)CC1)CC(C)(C)O2` (configuration not stated), for which the cytotoxicity at 70.5 h is -2.93%. Consider `c1cnn(Cc2ccc(CN3CCC4(CCCNC4)C3)cc2)c1` (configuration not stated), for which the cytotoxicity at 70.5 h was 21.4%. The figure for `CC(C)=Cc1c(-c2ccccc2)ncn1CCN(C)S(C)(=O)=O` is 0.261%; for `CCN(c1ccc(C(=O)N2CCCCC2)cc1)S(=O)(=O)CC` it is -9.5%; for `O=C(c1cncc(N2CC[C@@]3(O)CCNC[C@H]3C2)n1)N1CCCC1` it is -3.92%. The same measure for `CCN(CCO)C[C@@H]1CN(C(=O)c2ccc(C)s2)C[C@@H]1CO`: 34.8%.

Regarding `Cn1ccc(C2CCCCN2C(=O)c2cccc(-n3cccn3)c2)n1` (configuration not stated), the cytotoxicity at 70.5 h came out at 10.7%. For the compound `CS(=O)(=O)CCC(=O)N1C[C@@H]2CC[C@H](C1)N(Cc1ccccc1)C2=O`, the cytotoxicity at 70.5 h is -8.53%. In the case of `Cc1ccc(CN2CCN(c3ccc(F)cn3)CC2=O)cc1C`, the cytotoxicity at 70.5 h is -3.51%. `COCCN1C[C@@H](C(=O)O)[C@H](c2ccccc2C)C1`: the cytotoxicity at 70.5 h stood at 31.8%. The figure for `Cc1nn(C)c2ncnc(N3CCCC(C)(O)C3)c12` (configuration not stated) is -6.93%; for `CCN1CCc2[nH]cnc2C12CCN(c1ccc(Cl)c(C(=O)O)n1)CC2` it is -2.9%; for `Cc1cc2c(cc1CN1CCCCC1CCn1ccnc1C)OCO2` (configuration not stated) it is -1.13%. For the compound `CCc1ccccc1NC(=O)c1cccc(N(C)S(C)(=O)=O)c1C`, the cytotoxicity at 70.5 h is -4.65%.

Consider `Cc1ccccc1C(=O)Nc1ccc(OC2CCN(C)CC2)cc1`, for which the cytotoxicity at 70.5 h was -4.55%.

With `O=C1COc2cc(C(=O)NS(=O)(=O)c3cccc(Cl)c3)ccc2N1`, the cytotoxicity at 70.5 h is -19.1%. For the compound `CCc1ncc2c(n1)CN(Cc1nc(-c3ccoc3)no1)CC2`, the cytotoxicity at 70.5 h is -3.42%. Consider `Cn1ccnc1CN1CCCN(C(=O)c2cccc(CC#N)c2)CC1`, for which the cytotoxicity at 70.5 h was 11.5%. The same measure for `COc1c(CNC2CCCN(c3ncccn3)C2)c(C(C)C)nn1C` (configuration not stated): 18.4%.

Consider `Cn1ccnc1CN1CCCN(C(=O)c2ccc3c(c2)OCO3)CC1`, for which the cytotoxicity at 70.5 h is -6.18%. The figure for `CC(C(=O)N1CCCN(c2ncccc2C#N)CC1)n1cncn1` (configuration not stated) is -12.1%. Turning to `CCN(c1ccc(C(=O)N2CCCC2c2cnn(C)c2)cn1)C(C)C` (configuration not stated), the cytotoxicity at 70.5 h is 16.2%. Regarding `CC(=O)N1CCCN(C(=O)NCc2ccc(-c3ccn[nH]3)cc2)CC1`, the cytotoxicity at 70.5 h was -4.56%. The same measure for `Cc1ccc(OCCN(C)Cc2nc3c(cnn3C)c(=O)[nH]2)cc1`: -8.39%; for `COc1ccc(OCCN(C)Cc2nc3c(cnn3C)c(=O)[nH]2)cc1`: -3.93%; for `CS(=O)(=O)NC1CCN(C(=O)NCc2cc[nH]n2)CC1`: -8.42%. As to `CC(=O)NC1CCCN(C(=O)NCc2cc[nH]n2)C1` (configuration not stated), the cytotoxicity at 70.5 h was -1.94%.

As to `CNC(=O)C1CCN(C(=O)NCc2ccc(-c3ccn[nH]3)cc2)CC1`, the cytotoxicity at 70.5 h was -3.31%.

On to `CNC(=O)NC(=O)CN1CCN(c2ccc(C(=O)OC)cc2)CC1C` (configuration not stated), for which the cytotoxicity at 70.5 h was -7.85%. As for `Cc1ncc2c(n1)CN(CC(=O)Nc1c(C)nn(C)c1C)CC2`, the cytotoxicity at 70.5 h is -1.17%. The same measure for `Cc1nn(C)c(C)c1CC(=O)N1CCCC(n2ccnc2C)C1` (configuration not stated): -2.12%; for `CN(CC(=O)Nc1cccnc1)C1CCCN(c2cccnn2)C1` (configuration not stated): 31.2%.

On to `CCN1CC(C(=O)NCCOc2ccc3c(c2)OCO3)CC1=O` (configuration not stated), for which the cytotoxicity at 70.5 h was -1.5%. For the compound `CS(=O)(=O)NCC1CCCCN1C(=O)c1cccc(C(F)(F)F)c1` (configuration not stated), the cytotoxicity at 70.5 h is -0.142%. The same measure for `Cn1ncc2c(=O)[nH]c(CN3CCCC3Cc3ccc(F)cc3)nc21` (configuration not stated): 1.17%; for `NC(=O)NCC1CCCCN1C(=O)c1cc(F)cc(F)c1` (configuration not stated): -2.44%.

Take `O=C(CCc1ccsc1)N1CCC(Nc2cccnn2)CC1`: the cytotoxicity at 70.5 h was -3.07%.

Take `CCc1nc2n(n1)CC(NCc1cnc(-c3ccccc3)nc1)CC2` (configuration not stated): the cytotoxicity at 70.5 h stood at 29.3%. For `COc1cccc(CNC(C)C)c1OCc1ccc(C)cc1`, the cytotoxicity at 70.5 h is -3.04%.
